Values belong to the compound of their own block, whether it stands above or below them.
Assays:
[1] = target: Methanosarcina acetivorans IscS2 (MA2718), reconstituted with PLP (Methanosarcina acetivorans); test: SEC; IscS2^PLP (3.3 mg loaded) on HiPrep 16/60 Sephacryl S-200, 0.5 ml/min, 50 mM Tris pH 8.0, 150 mM NaCl, 2 mM DTT, 10% glycerol; calibrated with standard proteins; calculated 84 kDa
[2] = target: T1, IscS2 (Methanosarcina acetivorans, UniProt Q8TME0); test: UV-visible spectrum ([…] nm) and cysteine desulfurase activity with and without PLP; assay type: biochemical; conditions: PLP reconstitution at pH 7.2, 25 °C; assay 50 mM Tris pH 7.5, 1 mM L-cysteine, 1 mM DTT, 50 μM PLP
T1 construct: gene iscS; full-length, N-terminal His6-tag (pET28a) cut with thrombin, E. coli Rosetta (DE3) pLacI; homodimer (84 kDa by SEC)
T1 sequence (Q8TME0 entry or part of it): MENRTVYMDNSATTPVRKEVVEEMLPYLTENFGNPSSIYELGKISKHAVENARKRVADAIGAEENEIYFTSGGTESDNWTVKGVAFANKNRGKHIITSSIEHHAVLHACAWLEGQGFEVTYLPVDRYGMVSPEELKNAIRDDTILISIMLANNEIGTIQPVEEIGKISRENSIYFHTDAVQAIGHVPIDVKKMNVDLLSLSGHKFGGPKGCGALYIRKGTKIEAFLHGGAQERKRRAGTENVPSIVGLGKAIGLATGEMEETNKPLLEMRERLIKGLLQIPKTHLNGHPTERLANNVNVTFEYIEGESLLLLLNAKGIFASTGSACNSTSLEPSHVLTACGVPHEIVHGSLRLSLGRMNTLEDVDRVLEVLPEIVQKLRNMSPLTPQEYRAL

[3] = target: T1, IscS2; test: sulfide release, methylene blue assay ([…] nm); assay type: biochemical; conditions: 1 mM L-cysteine, 1 mM DTT, 50 mM Tris pH 7.5, 25 °C, with or without 50 μM PLP

stoichiometry N [1]: 2
Compound: Methanosarcina acetivorans IscS2 (MA2718), reconstituted with PLP (enzyme)

Compound: Cc1ncc(COP(=O)(O)O)c(C=O)c1O [PLP]
UV-visible spectrum (420 nm) and cysteine desulfurase activity with and without [2]: these results reveal that IscS2 is a PLP-dependent cysteine desulfurase

Compound: N[C@@H](CS)C(=O)O [L-cysteine]
sulfide release, methylene blue assay (670 nm) [3]: Purified IscS2 was able to remove sulfur from L-cysteine

— PMC7585200, “Methanosarcina acetivorans contains a functional ISC system for iron-sulfur cluster biogenesis” (BMC Microbiology, 2020)
